Results reported in ChEMBL document CHEMBL4800732, “Data for DCP probe TP-040” (2021).
“And” between values parts separate entries of the source, which are not always exact repeats. Identical values can stand only once.

How the values were obtained:
[1] = target: 5-hydroxytryptamine receptor 2B (Homo sapiens, UniProt P41595); conditions: Compound concentration 10.0 uM
[2] = target: T1, Alpha-2C adrenergic receptor (Homo sapiens, UniProt P18825); experiment: GPCRScan assay: inhibition of Alpha2C; set-up: radioligand conc. used [nm] 0.5 – 1.0, parental cells stable MDCK
T1 sequence (P18825 whole entry): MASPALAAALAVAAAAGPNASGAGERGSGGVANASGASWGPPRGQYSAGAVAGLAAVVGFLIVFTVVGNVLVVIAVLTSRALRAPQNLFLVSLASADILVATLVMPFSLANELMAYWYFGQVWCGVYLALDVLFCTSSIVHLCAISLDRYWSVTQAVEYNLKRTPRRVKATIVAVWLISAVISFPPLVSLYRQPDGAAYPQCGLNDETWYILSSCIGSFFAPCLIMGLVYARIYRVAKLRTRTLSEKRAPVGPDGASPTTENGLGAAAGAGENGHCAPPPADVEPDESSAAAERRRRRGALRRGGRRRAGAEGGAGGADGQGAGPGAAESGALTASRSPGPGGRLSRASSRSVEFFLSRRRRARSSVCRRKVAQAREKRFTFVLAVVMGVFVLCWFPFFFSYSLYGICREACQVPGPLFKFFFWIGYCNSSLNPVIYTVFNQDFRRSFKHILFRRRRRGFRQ

[3] = target: GABA-A receptor; anion channel; experiment: GPCRScan assay: inhibition of GABAA/BZP; format: protein-complex assay, Rattus norvegicus; set-up: radioligand conc. used [nm] 0.6 – 4.0, parental cells brain tissue
[4] = target: Muscarinic acetylcholine receptor M5 (Homo sapiens) (UniProt P08912); conditions: Compound concentration 10.0 uM
[5] = target: Beta-hexosaminidase subunit beta (Homo sapiens, UniProt P07686); experiment: Enzymatic HEXB assay
[6] = target: 5-hydroxytryptamine receptor 1B (Homo sapiens) (UniProt P28222); conditions: Compound concentration 10.0 uM
[7] = target: Alpha-1B adrenergic receptor (Homo sapiens) (UniProt P35368); conditions: Compound concentration 10.0 uM
[8] = target: D(1A) dopamine receptor (Homo sapiens) (UniProt P21728); conditions: Compound concentration 10.0 uM
[9] = target: D(2) dopamine receptor (Homo sapiens) (UniProt P14416); conditions: Compound concentration 10.0 uM
[10] = target: GABA-A receptor; anion channel (Rattus norvegicus) (UniProt O09028+P15431+P18506+P18508+P19969+P20236+P23574+P23576+P28471+P28473+P30191+P62813+P63079+P63138+Q91ZM7+Q9ES14); conditions: Compound concentration 10.0 uM
[11] = target: Kappa-type opioid receptor (Homo sapiens) (UniProt P41145); conditions: Compound concentration 10.0 uM
[12] = target: Alpha-2A adrenergic receptor (Homo sapiens) (UniProt P08913); conditions: Compound concentration 10.0 uM
[13] = target: T2, Sodium-dependent noradrenaline transporter (Homo sapiens, UniProt P23975); conditions: Compound concentration 10.0 uM
[14] = target: D(1B) dopamine receptor (Homo sapiens) (UniProt P21918); conditions: Compound concentration 10.0 uM
[15] = target: T3, Sigma intracellular receptor 2 (Homo sapiens, UniProt Q5BJF2); conditions: Compound concentration 10.0 uM
[16] = target: Beta-2 adrenergic receptor (Homo sapiens) (UniProt P07550); conditions: Compound concentration 10.0 uM
[17] = target: T4, 5-hydroxytryptamine receptor 5A (Homo sapiens, UniProt P47898); conditions: Compound concentration 10.0 uM
[18] = target: T2, Sodium-dependent noradrenaline transporter; experiment: GPCRScan assay: inhibition of NET; set-up: radioligand conc. used [nm] 1.3 – 5.0, parental cells stable HEK
Histamine H4 receptor [19] = target: T5, Histamine H4 receptor (Homo sapiens, UniProt Q9H3N8); experiment: GPCRScan assay: inhibition of H4; set-up: radioligand conc. used [nm] 1.0 – 5.0, parental cells HEK T
[20] = target: Beta-3 adrenergic receptor (Homo sapiens) (UniProt P13945); conditions: Compound concentration 10.0 uM
Histamine H2 receptor = Histamine H2 receptor (Homo sapiens, UniProt P25021); experiment: GPCRScan assay: inhibition of H2; set-up: radioligand conc. used [nm] 0.02 – 0.05, parental cells Stable HEK
[21] = target: 5-hydroxytryptamine receptor 6 (Homo sapiens, UniProt P50406); experiment: GPCRScan assay: inhibition of 5-HT6; set-up: radioligand conc. used [nm] 2.0 – 4.0, parental cells stable HEK
[22] = target: 5-hydroxytryptamine receptor 2A (Homo sapiens, UniProt P28223); experiment: GPCRScan assay: inhibition of 5-HT2A; set-up: radioligand conc. used [nm] 1.2 – 2.4, parental cells HEKT
Protein O-GlcNAcase = Protein O-GlcNAcase (Homo sapiens, UniProt O60502); experiment: Enzymatic OGA assay
[23] = target: T4, 5-hydroxytryptamine receptor 5A; experiment: GPCRScan assay: inhibition of 5-HT5A; set-up: radioligand conc. used [nm] 2.0 - 3.3, parental cells Flp-In CHO
[24] = target: Sigma non-opioid intracellular receptor 1 (Homo sapiens, UniProt Q99720); experiment: GPCRScan assay: inhibition of Sigma 1; set-up: radioligand conc. used [nm] 4.0 – 5.0, parental cells HEKT
Histamine H4 receptor [25] = target: T5, Histamine H4 receptor; conditions: Compound concentration 10.0 uM
Histamine H3 receptor = Histamine H3 receptor (Homo sapiens, UniProt Q9Y5N1); experiment: GPCRScan assay: inhibition of H3; set-up: radioligand conc. used [nm] 0.5 – 1.0, parental cells HEK Flp-In
[26] = target: 5-hydroxytryptamine receptor 7 (Homo sapiens, UniProt P34969); experiment: GPCRScan assay: inhibition of 5-HT7A; set-up: radioligand conc. used [nm] 5.0 – 6.0, parental cells Stable HEK
[27] = target: Sodium-dependent dopamine transporter (Homo sapiens, UniProt Q01959); experiment: GPCRScan assay: inhibition of DAT; set-up: radioligand conc. used [nm] 3.6 – 16.0, parental cells stable HEK
[28] = target: T3, Sigma intracellular receptor 2; experiment: GPCRScan assay: inhibition of Sigma 2; set-up: radioligand conc. used [nm] 5.0, parental cells HEKT

T2 sequence (P23975 whole entry): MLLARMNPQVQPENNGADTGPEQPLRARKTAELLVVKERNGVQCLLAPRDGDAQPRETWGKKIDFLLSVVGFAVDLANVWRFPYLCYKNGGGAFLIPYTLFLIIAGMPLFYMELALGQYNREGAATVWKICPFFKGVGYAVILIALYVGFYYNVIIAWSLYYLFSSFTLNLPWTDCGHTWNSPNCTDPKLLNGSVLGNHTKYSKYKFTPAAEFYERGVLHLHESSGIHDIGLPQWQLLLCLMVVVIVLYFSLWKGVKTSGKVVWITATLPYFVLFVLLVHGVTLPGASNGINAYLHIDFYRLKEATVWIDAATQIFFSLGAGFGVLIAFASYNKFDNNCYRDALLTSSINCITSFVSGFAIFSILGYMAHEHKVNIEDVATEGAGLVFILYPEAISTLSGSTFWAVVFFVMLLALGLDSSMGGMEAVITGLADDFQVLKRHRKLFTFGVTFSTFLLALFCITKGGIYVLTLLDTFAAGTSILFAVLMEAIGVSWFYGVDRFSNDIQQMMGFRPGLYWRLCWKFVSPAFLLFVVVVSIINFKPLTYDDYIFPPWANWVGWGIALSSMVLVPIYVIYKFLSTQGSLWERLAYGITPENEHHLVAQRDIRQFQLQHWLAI
Chain of Histamine H3 receptor (Q9Y5N1 whole entry): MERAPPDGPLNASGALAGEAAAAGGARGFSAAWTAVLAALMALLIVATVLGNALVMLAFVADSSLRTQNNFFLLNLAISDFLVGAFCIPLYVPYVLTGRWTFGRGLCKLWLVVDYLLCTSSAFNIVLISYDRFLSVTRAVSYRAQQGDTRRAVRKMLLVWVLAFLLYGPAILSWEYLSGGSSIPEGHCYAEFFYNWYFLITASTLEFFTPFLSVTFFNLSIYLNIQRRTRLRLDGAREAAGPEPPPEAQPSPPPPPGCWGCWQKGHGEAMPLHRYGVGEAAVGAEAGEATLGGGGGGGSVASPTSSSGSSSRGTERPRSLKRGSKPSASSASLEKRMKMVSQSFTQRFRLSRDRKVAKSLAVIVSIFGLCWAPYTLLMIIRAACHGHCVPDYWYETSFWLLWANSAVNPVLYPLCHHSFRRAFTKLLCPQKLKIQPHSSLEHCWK
T5 sequence (Q9H3N8 whole entry): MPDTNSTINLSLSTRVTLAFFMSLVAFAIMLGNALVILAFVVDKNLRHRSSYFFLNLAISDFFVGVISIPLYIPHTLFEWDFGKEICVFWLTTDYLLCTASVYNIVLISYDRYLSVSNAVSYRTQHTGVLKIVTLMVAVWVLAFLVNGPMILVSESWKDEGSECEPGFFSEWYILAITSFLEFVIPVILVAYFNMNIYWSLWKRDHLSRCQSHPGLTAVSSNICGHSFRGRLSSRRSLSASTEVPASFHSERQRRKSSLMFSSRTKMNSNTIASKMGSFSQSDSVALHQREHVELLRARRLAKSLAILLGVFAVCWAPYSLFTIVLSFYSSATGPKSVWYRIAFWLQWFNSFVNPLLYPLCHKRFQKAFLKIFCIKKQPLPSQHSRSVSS
T3 sequence (Q5BJF2 whole entry): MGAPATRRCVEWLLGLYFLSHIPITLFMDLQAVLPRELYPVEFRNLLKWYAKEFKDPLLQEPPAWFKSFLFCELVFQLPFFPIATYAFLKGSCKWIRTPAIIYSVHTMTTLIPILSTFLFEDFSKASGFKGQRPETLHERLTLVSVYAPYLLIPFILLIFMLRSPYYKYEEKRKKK
T4 sequence (P47898 whole entry): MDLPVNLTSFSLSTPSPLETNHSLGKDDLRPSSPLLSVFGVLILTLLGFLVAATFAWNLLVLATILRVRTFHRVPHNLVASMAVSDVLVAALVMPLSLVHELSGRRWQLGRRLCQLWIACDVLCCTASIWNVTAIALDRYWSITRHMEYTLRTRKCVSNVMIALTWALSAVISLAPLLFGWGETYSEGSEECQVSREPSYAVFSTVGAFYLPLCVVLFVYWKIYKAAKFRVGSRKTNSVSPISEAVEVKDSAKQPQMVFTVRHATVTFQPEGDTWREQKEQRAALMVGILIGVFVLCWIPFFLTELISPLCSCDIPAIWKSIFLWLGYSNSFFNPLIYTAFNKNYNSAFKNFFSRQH
Chain of 5-hydroxytryptamine receptor 1B (Homo sapiens) (P28222 whole entry): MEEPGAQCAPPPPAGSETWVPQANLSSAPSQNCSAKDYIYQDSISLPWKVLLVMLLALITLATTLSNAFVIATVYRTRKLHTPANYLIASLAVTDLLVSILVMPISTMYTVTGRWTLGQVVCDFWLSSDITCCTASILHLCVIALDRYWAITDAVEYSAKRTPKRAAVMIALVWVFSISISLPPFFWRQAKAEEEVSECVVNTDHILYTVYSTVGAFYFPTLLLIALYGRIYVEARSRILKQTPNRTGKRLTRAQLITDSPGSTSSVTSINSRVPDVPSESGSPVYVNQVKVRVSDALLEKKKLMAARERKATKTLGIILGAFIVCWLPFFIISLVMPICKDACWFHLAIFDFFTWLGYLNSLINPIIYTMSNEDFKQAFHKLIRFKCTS
Chain of Alpha-2A adrenergic receptor (Homo sapiens) (P08913 whole entry): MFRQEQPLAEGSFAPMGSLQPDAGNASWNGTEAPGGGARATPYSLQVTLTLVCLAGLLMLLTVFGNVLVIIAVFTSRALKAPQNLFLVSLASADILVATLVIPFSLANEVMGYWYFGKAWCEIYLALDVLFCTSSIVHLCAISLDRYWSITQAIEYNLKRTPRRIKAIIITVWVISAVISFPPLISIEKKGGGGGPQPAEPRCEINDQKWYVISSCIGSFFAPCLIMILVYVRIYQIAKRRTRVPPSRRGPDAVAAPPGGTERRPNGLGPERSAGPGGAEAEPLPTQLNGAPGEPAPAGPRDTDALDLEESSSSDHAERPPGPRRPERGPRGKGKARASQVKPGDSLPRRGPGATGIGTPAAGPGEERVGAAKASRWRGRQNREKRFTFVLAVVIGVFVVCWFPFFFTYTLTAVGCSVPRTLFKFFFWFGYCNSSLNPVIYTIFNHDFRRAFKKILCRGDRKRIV
Chain of Kappa-type opioid receptor (Homo sapiens) (P41145 whole entry): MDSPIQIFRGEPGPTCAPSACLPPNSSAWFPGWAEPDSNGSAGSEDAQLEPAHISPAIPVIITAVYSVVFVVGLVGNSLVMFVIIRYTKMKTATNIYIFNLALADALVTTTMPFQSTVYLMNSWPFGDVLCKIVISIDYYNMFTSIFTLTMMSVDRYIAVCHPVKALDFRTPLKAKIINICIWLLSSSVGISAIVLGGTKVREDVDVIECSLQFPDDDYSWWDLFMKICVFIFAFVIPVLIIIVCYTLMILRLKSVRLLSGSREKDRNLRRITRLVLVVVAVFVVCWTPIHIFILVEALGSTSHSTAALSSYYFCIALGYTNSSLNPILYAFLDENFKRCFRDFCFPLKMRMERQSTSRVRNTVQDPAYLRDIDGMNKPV
Chain of Sodium-dependent dopamine transporter (Q01959 whole entry): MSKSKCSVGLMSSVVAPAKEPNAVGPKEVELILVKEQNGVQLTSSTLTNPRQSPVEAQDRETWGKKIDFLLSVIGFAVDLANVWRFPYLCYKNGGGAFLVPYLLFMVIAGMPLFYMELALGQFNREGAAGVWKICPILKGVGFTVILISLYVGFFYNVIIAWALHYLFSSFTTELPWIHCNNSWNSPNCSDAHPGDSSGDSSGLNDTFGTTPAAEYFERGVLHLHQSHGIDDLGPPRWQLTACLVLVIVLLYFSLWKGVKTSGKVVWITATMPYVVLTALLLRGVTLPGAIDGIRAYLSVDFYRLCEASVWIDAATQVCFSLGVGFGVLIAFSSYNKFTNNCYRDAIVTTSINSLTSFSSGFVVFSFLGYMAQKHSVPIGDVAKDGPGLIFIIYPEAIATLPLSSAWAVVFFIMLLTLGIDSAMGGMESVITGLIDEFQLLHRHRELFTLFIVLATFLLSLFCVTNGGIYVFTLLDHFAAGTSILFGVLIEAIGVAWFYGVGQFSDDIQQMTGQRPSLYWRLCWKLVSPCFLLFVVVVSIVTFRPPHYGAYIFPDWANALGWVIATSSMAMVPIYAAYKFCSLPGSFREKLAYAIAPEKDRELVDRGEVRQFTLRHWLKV
Chain of D(2) dopamine receptor (Homo sapiens) (P14416 whole entry): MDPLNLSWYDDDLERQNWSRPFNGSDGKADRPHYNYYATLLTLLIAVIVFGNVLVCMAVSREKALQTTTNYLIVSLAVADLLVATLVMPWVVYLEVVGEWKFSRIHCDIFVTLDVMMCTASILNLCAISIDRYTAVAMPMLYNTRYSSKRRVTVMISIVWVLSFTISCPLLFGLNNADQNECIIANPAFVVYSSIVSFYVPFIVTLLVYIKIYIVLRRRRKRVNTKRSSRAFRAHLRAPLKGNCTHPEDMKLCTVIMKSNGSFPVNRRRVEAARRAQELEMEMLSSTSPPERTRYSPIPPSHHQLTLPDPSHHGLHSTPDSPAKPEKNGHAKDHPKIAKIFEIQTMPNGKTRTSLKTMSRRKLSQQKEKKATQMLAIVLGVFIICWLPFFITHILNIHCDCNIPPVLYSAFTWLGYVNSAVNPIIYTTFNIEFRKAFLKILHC
Chain of D(1A) dopamine receptor (Homo sapiens) (P21728 whole entry): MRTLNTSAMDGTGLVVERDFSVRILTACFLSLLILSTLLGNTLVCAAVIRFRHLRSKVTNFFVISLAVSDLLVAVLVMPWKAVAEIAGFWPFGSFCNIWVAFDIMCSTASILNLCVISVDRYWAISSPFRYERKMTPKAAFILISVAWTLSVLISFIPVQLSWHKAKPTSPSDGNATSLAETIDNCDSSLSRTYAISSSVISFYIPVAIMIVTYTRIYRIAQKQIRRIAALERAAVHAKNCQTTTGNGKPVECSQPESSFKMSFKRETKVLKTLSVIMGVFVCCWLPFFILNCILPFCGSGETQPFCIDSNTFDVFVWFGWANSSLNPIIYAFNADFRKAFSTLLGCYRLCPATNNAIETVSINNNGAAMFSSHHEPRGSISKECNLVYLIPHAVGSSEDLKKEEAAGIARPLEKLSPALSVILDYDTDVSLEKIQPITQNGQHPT

## CC1CCN(c2ccnc(NCc3cn(C)cn3)n2)CC1 [TP-040]
[1]
  inhibition: 81.8%
[2]; read-out: Ki
  Ki: 3430 nM
[2]; read-out: pKi (converted)
  Ki: 3390 nM
[3]
  Ki: 512 nM
[4]
  inhibition: 25.1%
[5]
  IC50: > 10000 nM (not active)
[6]
  inhibition: 24.4%
[7]
  inhibition: -5.62%
[8]
  inhibition: -8.84%
[9]
  inhibition: 4.96%
[10]
  inhibition: 2.33%
[11]
  inhibition: 36.6%
[12]
  inhibition: 12.8%
[13]
  inhibition: 75.8%
[14]
  inhibition: 5.03%
[15]
  inhibition: 33.6%
[16]
  inhibition: -3.61%
[17]
  inhibition: 24%
[18]; read-out: Ki
  Ki: 1940 nM
[18]; read-out: pKi (converted)
  Ki: 1910 nM

## CN1CCN(c2ccnc(NCCc3ccccc3)n2)CC1 [TP-040n]
[1]
  inhibition: 91.7%
[2]; read-out: Ki
  Ki: 414 nM
[2]; read-out: pKi (converted)
  Ki: 407 nM
Histamine H4 receptor [19]; read-out: Ki
  Ki: 712 nM and 703 nM
Histamine H4 receptor [19]; read-out: pKi (converted)
  Ki: 692 nM
[20]
  inhibition: 2.45%
Histamine H2 receptor; read-out: Ki
  Ki: 149 nM
Histamine H2 receptor; read-out: pKi (converted)
  Ki: 145 nM
[4]
  inhibition: 6.46%
[21]
  Ki: 606 nM
[22]; read-out: Ki
  Ki: 758 nM
[22]; read-out: pKi (converted)
  Ki: 692 nM
[6]
  inhibition: 45.9%
[7]
  inhibition: 22.1%
[8]
  inhibition: 26.5%
Protein O-GlcNAcase
  IC50: > 10000 nM (not active)
[9]
  inhibition: 20.6%
[10]
  inhibition: 34.6%
[11]
  inhibition: 23.7%
[12]
  inhibition: 34.6%
[23]; read-out: Ki
  Ki: 6130 nM
[23]; read-out: pKi (converted)
  Ki: 5130 nM
[13]
  inhibition: 93.8%
[24]; read-out: Ki
  Ki: 125 nM
[24]; read-out: pKi (converted)
  Ki: 123 nM
Histamine H4 receptor [25]
  inhibition: 82.8%
Histamine H3 receptor; read-out: Ki
  Ki: 92.8 nM and 99.6 nM
Histamine H3 receptor; read-out: pKi (converted)
  Ki: 81.3 nM
[26]
  Ki: 335 nM
[27]; read-out: Ki
  Ki: 865 nM
[27]; read-out: pKi (converted)
  Ki: 832 nM
[15]
  inhibition: 77.2%
[16]
  inhibition: -3.49%
[28]; read-out: Ki
  Ki: 1460 nM
[28]; read-out: pKi (converted)
  Ki: 1450 nM
[17]
  inhibition: 59.8%
[18]; read-out: Ki
  Ki: 3110 nM
[18]; read-out: pKi (converted)
  Ki: 3020 nM
